Literature values, collected in patent publication US9062045B2, “Triazolopyridine compounds” (Novartis AG, priority 2012, dated 2015).

Conditions: cited from earlier work

For `Cn1cc(-c2ccc3nnc(Sc4ccc5[nH]c(=O)ccc5c4)n3n2)cn1` [2-quinolinone-SGX523 metabolite, 6-(6-(1-methyl-1H-pyrazol-4-yl)-[1,2,4]triazolo[4,3-b]pyridazin-3-ylthio)quinolin-2(1H)-one], the “solubility compared with SGX523” value is given as “markedly less-soluble”.
